Measured values taken from the supplement of paper PMC10307832.

How the values were obtained:
Assay in all cases: relative viability (nuclei count vs DMSO), 5 days (fraction); higher = more cells survive
Apatinib + Alpelisib = compound: N#CC1(c2ccc(NC(=O)c3cccnc3NCc3ccncc3)cc2)CCCC1 [Apatinib] + Cc1nc(NC(=O)N2CCC[C@H]2C(N)=O)sc1-c1ccnc(C(C)(C)C(F)(F)F)c1 [Alpelisib] (partner 2 µM)
Method in brief: (§1)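 Relative viability equals treated-well nuclei counts divided by vehicle-well nuclei counts. Counts came from 4× images of lung cancer cell lines grown in 1536-well plates for 5 days after pin-tool dosing on the day after seeding. Dosing used one drug alone or a fixed anchor-drug dose plus five library-drug doses (not always all listed) in √10 steps, and values are medians of duplicate plates.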

Metformin + Lapatinib = compound: CN(C)C(=N)NC(=N)N [Metformin] + CS(=O)(=O)CCNCc1ccc(-c2ccc3ncnc(Nc4ccc(OCc5cccc(F)c5)c(Cl)c4)c3c2)o1 [Lapatinib] (partner 2 µM)
Method in brief: as §1

Apatinib + Olaparib = compound: N#CC1(c2ccc(NC(=O)c3cccnc3NCc3ccncc3)cc2)CCCC1 [Apatinib] + O=C(c1cc(Cc2n[nH]c(=O)c3ccccc23)ccc1F)N1CCN(C(=O)C2CC2)CC1 [Olaparib] (partner 8 µM)
Method in brief: as §1

Apatinib + Tozasertib = compound: N#CC1(c2ccc(NC(=O)c3cccnc3NCc3ccncc3)cc2)CCCC1 [Apatinib] + Cc1cc(Nc2cc(N3CCN(C)CC3)nc(Sc3ccc(NC(=O)C4CC4)cc3)n2)n[nH]1 [Tozasertib] (partner 0.1 µM)
Method in brief: as §1

Cell Line	relative viability (Apatinib + Alpelisib; first compound 0.08 µM)	relative viability (Apatinib + Alpelisib; first compound 0.253 µM)	relative viability (Apatinib + Alpelisib; first compound 0.8 µM)	relative viability (Apatinib + Alpelisib; first compound 2.53 µM)	relative viability (Apatinib + Alpelisib; first compound 8 µM)	relative viability (Metformin + Lapatinib; first compound 10 µM)	relative viability (Metformin + Lapatinib; first compound 31.62 µM)	relative viability (Metformin + Lapatinib; first compound 100 µM)	relative viability (Metformin + Lapatinib; first compound 316.23 µM)	relative viability (Metformin + Lapatinib; first compound 1000 µM)	relative viability (Apatinib + Olaparib; first compound 0.08 µM)	relative viability (Apatinib + Olaparib; first compound 0.253 µM)	relative viability (Apatinib + Olaparib; first compound 0.8 µM)	relative viability (Apatinib + Olaparib; first compound 2.53 µM)	relative viability (Apatinib + Olaparib; first compound 8 µM)	relative viability (Apatinib + Tozasertib; first compound 0.08 µM)	relative viability (Apatinib + Tozasertib; first compound 0.253 µM)	relative viability (Apatinib + Tozasertib; first compound 0.8 µM)	relative viability (Apatinib + Tozasertib; first compound 2.53 µM)	relative viability (Apatinib + Tozasertib; first compound 8 µM)
LK-2	1.33	1.29	1.04	1.01	0.919	1.22	1.19	1.23	0.878	0.697	0.903	0.581	0.64	0.63	0.515	0.159	0.195	0.183	0.152	0.175
COR-L23	0.966	0.743	0.772	0.774	0.652	1.21	0.969	0.734	0.773	1.07	0.355	0.377	0.324	0.273	0.286	0.263	0.165	0.149	0.143	0.129
NCI-H1915	1.08	1.09	1.04	0.916	0.81		1.07	0.973	0.976	1	0.262	0.257	0.266	0.264	0.239	0.422	0.445	0.43	0.35	0.267
NCI-H2228	0.785	0.738	0.648	0.542	0.527	1.46	1.25		0.974	1.24	0.837	0.754	0.456	0.58	0.323	0.268	0.221	0.225	0.164	0.0952
NCI-H23	0.665	0.911	0.595	0.627	0.558	0.998	1.14	1.05	0.762	1.11	0.305	0.322	0.301	0.316	0.238	0.374	0.516	0.339	0.243	0.197
NCI-H596	0.535	0.528	0.579	0.402	0.222	1.18	1.22	1.07	1.06	1.2	0.822	0.73	0.722	0.65	0.634	1.05	0.965	0.854	0.705	0.631
NCI-H1734	0.739	0.774	0.701	0.591	0.595	1.03	1.04	1.09	0.991	1.14	0.675	0.622	0.61	0.56	0.565	0.246	0.283	0.219	0.231	0.231
NCI-H2405	0.855	1.1	0.91	0.841	0.81	0.932	1.13	1.01	1.07	0.556	0.916	0.883	0.837	0.821	0.752	0.911	0.759	0.685	0.607	0.604
NCI-H727	0.64	0.625	0.53	0.512	0.506	0.863	0.917	0.615	0.728	0.884	0.812		0.725	0.622	0.718	0.676	0.631	0.545	0.559	0.488
NCI-H2009	1.13	1.2	1.1	1.02	0.893	0.574	0.98	1.01	0.889	0.991	0.722	0.651	0.64	0.431	0.443	0.856	0.792	0.687	0.58	0.38
NCI-H1666	0.943	1.01	0.936	0.979	0.943	0.57	0.557	0.601	0.535	0.67	0.803	0.8	0.705	0.743	0.765	0.595	0.583	0.501	0.615	0.526
UMC-11	1.05	0.834	0.848	0.959	0.885	0.899	1.04	1.1	0.973	1.17	1.14	0.411	0.397	0.328	0.365	0.193	0.194	0.198	0.211	0.198
NCI-H1755	0.933	0.946	0.909	0.899	0.845	0.763	0.956	1.02	0.929	0.99	0.846	0.892	0.835	0.876	0.753	0.64	0.542	0.529	0.506	0.447
201T	1.01	1.08	1.03	1.09	1.05		1.08	1.07	0.989	1	0.872	0.817	0.789	0.9	0.749	0.96	0.878	0.897	0.808	0.615
NCI-H838	1.06	1.03	0.935	0.958	0.942	1.13	0.987	0.918	0.951	0.888	0.853	0.831	0.762	0.69	0.696	0.301	0.302	0.248	0.222	0.213
HOP-62	0.727		1.15	0.801	0.713	0.725	1.05	0.891	0.777	1.05	0.328	0.396	0.407	0.354	0.282	0.442	0.403	0.329	0.257	0.192
LC-2-ad	0.9	0.798	0.802	0.824	0.652		1.03	0.853	0.799	1	0.747	0.658	0.699	0.743	0.668	0.516	0.522	0.466	0.462	0.446
